Test [1] concerns the target Aldo-keto reductase family 1 member B1 (Homo sapiens) (UniProt P15121). The test can be described thus: Inhibition of aldose reductase at 1 uM.
Test [2] shares this target. The test can be described thus: Inhibition of aldose reductase at 0.1 uM.

One may read the inhibition as the change of the read-out against control, counted positive when it falls. Read a low inhibition as a weak effect.

In the case of `COc1cc2oc(-c3ccc(O)c(O)c3)c(OC)c(=O)c2c(O)c1OC`, the results for the inhibition in test [1] and in test [2] were 63% and 88%, respectively.

On to `COc1cc2oc(-c3ccc(O)c(O)c3)c(OC)c(=O)c2c(O)c1O`, for which the results for the inhibition in test [1] and in test [2] were 71% and 97%, respectively.

Consider `O=C1NC(=O)c2cccc3cccc1c23`, for which the inhibition in test [1] stood at 44%; in test [2], 92%.

On to `COc1cc2oc(-c3ccc(O)cc3)c(OC)c(=O)c2c(O)c1OC`, for which the results for the inhibition in test [1] and in test [2] were 21% and 64%, respectively.

For `COc1c(-c2ccc(O)c(O)c2)oc2cc(O)cc(O)c2c1=O`, the inhibition in test [1] was found to be 78%; in test [2], 95%.

For `COc1ccc(-c2oc3cc(O[C@@H]4O[C@H](CO)[C@@H](O)[C@H](O)[C@H]4O)c(OC)c(O)c3c(=O)c2OC)cc1O`, the figures for the inhibition in test [1] and in test [2] were 0% and 47%, respectively.

For the molecule `C[C@@H]1O[C@@H](Oc2c(-c3ccc(O)c(O)c3)oc3cc(O)cc(O)c3c2=O)[C@H](O)[C@H](O)[C@H]1O`, the inhibition worked out at 82% in test [1] and 91% in test [2].

The values are drawn from ChEMBL document CHEMBL1151623, “Flavonoids from Brickellia glutinosa” (J Nat Prod, 1984).
